{
  "source": "patent US20110003837A1",
  "about": "“MODIFIED RELEASE FORMULATIONS OF HMG COA REDUCTASE INHIBITORS” (LUPIN LIMITED, priority 2008, published 2011)",
  "origin": "cited, not measured here",
  "key": {"[1]": {"settings": "40 mg daily, clinical trials"}, "HMG-CoA reductase": {"biological_target": "T1, HMG-CoA reductase (Homo sapiens, UniProt P04035)", "T1 sequence (P04035 1-888)": "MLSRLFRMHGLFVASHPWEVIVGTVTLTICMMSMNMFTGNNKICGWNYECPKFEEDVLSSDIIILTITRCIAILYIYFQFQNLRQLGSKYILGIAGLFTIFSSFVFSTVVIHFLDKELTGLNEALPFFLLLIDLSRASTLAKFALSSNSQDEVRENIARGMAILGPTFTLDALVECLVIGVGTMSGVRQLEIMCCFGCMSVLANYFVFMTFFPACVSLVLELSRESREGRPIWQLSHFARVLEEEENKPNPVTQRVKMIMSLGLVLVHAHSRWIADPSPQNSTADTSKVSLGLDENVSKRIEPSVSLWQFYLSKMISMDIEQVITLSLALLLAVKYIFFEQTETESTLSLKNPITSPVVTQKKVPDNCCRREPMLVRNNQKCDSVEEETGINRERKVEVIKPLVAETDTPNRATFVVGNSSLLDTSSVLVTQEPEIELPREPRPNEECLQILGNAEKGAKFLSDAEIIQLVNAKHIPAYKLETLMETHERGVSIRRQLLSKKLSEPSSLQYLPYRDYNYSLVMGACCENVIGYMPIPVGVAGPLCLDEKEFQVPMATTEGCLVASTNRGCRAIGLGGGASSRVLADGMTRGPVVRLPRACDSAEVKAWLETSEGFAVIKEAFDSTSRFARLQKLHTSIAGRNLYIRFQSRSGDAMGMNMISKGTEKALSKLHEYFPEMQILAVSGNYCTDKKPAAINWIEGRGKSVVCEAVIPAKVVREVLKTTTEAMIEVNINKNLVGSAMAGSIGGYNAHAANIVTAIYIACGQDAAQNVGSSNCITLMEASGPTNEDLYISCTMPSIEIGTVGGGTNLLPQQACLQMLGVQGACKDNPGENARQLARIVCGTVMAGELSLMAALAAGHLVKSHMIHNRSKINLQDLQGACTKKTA"}, "[2]": {"settings": "in vivo"}, "[3]": {"settings": "U.S. Pharmacopeia (2002)"}, "[4]": {"settings": "in words"}},
  "note": "Where two headings read alike, the source gives them in different places.",
  "data": [
    {"smiles": "CC(C)c1nc(N(C)S(C)(=O)=O)nc(-c2ccc(F)cc2)c1/C=C/[C@@H](O)C[C@@H](O)CC(=O)O", "note": "(single isomer, unassigned) [rosuvastatin]", "values": [
      {"measurement": "LDL-C reduction", "setting": "[1]", "value": "up to 63%"},
      {"measurement": "Share of the inhibitory activity of rosuvastatin due to the parent compound", "setting": "HMG-CoA reductase", "value": 90, "unit": "%"},
      {"measurement": "Absorbed dose extracted by the liver", "setting": "[2]", "value": "up to 90%"},
      {"measurement": "Clearance through biliary excretion", "setting": "[2]", "value": 90, "unit": "%"},
      {"measurement": "Elimination half-life (t½)", "setting": "[2]", "value": 20, "unit": "h"},
      {"measurement": "Excreted in the urine", "setting": "[2]", "value": 10, "unit": "%"},
      {"measurement": "Patients with drug levels greater than 50 ng/ml", "setting": "40 mg", "value": 2, "unit": "%"},
      {"measurement": "Patients with drug levels greater than 50 ng/ml", "setting": "80 mg", "value": 33, "unit": "%"},
      {"measurement": "Plasma level at which muscle and or renal toxicity developed", "setting": "plasma", "value": "more than 50 ng/ml"},
      {"measurement": "Solubility class", "setting": "[3]", "value": "sparingly soluble"},
      {"measurement": "Stability in acidic environments like that found in the stomach", "setting": "[4]", "value": "stable in acidic environments"}
    ]}
  ]
}
